In BindingDB's records for doi:10.1016/j.bmcl.2009.03.149 (Gsk, 2009):

What was measured:
Assay in all cases: Enzyme Inhibition Assay
[1] = biological target: Beta-secretase 1 (Homo sapiens, UniProt P56817); settings: pH 4.5; 22 °C
[2] = biological target: T1, Beta-secretase 2 (Homo sapiens, UniProt Q9Y5Z0)
T1 sequence (Q9Y5Z0 whole entry): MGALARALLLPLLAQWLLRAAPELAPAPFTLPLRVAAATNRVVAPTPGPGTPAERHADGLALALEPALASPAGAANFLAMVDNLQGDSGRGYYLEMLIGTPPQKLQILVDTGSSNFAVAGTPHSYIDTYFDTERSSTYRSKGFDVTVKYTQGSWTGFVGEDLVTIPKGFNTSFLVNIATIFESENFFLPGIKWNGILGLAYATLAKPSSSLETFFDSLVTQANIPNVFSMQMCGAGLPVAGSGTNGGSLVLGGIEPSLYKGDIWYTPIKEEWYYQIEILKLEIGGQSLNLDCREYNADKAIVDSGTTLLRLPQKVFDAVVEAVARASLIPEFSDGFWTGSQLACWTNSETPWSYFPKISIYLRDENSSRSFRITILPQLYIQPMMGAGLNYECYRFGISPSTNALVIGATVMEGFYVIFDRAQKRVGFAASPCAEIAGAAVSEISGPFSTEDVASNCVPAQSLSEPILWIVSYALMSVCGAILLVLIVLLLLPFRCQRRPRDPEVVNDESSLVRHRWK

[3] = biological target: Cathepsin D (Homo sapiens, UniProt P07339)
Sequence of Cathepsin D (P07339 65-162 limits assumed): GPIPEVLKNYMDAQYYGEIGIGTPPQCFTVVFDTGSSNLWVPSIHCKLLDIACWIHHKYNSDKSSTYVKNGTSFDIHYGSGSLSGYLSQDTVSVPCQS
Sequence of Cathepsin D (P07339 169-412 limits assumed): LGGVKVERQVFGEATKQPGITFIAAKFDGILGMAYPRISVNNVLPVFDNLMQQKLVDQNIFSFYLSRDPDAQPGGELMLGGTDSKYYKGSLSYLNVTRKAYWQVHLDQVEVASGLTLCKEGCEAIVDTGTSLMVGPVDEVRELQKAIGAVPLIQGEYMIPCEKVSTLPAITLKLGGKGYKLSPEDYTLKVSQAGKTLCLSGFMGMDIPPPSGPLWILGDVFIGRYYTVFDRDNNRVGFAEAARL

Sequence of Beta-secretase 1 (P56817 whole entry): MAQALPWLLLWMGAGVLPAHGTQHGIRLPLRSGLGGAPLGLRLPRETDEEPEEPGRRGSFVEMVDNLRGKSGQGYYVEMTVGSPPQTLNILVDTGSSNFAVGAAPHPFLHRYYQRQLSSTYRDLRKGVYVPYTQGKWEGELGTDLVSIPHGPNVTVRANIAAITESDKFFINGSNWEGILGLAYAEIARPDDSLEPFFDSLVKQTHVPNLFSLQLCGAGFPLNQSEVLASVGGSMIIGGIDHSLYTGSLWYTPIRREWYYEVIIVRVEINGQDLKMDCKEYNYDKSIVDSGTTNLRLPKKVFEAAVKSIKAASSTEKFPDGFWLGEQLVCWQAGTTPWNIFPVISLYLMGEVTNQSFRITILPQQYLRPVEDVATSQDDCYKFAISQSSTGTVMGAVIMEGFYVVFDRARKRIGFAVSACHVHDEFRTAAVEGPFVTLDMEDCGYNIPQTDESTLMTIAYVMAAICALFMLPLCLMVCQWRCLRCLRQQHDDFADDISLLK

Structure (SMILES) | IC50 [1] [nM] | IC50 [2] [nM] | IC50 [3] [nM] | IC50 ([3]; pH 4.5, 22 °C) [nM]
CCc1cn2c3c(cc(C(=O)N[C@@H](Cc4ccccc4)[C@H](O)CNC4CCOCC4)cc13)N(C)S(=O)(=O)CC2 [BMCL193674 Compound 6] | 15 | 490 | 6610 | –
CCc1cn2c3c(cc(C(=O)N[C@@H](Cc4ccccc4)[C@H](O)CNC4CCOCC4)cc13)OS(=O)(=O)CC2 [sulfone tricyclic analogue, 19] | 86 | 450 | – | 130
